# From publication doi:10.1101/2024.02.29.582594, “Hachiman is a genome integrity sensor” (bioRxiv, 2024)
# Target: T1, HamB (Escherichia coli, UniProt A0A426EXV0)
# T1 construct: gene DU321_04165; full-length HamB alone, N-terminal 10xHis-MBP-TEV, tag cut with TEV; expressed in E. coli BL21-AI
# T1 sequence (A0A426EXV0 1-1174): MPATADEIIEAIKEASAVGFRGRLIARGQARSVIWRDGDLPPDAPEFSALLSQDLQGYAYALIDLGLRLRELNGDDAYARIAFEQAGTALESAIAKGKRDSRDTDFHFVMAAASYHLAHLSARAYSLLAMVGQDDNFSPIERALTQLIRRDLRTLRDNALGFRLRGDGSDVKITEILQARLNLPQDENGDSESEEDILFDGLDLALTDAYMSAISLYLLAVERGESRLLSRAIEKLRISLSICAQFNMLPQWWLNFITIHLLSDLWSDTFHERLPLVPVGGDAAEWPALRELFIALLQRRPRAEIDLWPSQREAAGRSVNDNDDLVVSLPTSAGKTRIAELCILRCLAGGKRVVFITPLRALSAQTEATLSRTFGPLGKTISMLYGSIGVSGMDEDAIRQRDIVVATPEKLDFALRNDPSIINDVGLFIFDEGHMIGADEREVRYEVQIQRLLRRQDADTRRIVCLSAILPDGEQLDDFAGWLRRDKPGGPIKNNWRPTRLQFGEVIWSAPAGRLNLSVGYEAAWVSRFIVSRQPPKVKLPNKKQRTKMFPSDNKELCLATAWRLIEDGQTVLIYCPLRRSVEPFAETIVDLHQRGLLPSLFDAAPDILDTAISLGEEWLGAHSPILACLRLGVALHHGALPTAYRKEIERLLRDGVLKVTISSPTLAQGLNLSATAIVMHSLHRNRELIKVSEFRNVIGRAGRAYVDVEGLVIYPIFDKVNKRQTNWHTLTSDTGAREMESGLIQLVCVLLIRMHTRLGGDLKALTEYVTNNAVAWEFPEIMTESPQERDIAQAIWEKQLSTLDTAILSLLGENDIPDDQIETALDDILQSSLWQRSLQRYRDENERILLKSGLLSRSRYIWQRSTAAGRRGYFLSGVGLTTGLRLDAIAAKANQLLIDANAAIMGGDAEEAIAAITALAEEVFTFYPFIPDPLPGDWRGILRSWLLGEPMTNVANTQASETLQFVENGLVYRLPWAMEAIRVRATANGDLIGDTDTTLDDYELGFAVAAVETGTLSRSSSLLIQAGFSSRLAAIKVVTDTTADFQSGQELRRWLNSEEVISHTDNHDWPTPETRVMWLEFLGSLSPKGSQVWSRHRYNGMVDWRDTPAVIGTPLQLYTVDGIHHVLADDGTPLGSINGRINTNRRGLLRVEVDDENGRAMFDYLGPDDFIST
# Assay: malachite green phosphate release assay
# Type: biochemical
# Conditions: 40 nM HamB, 100 nM ssDNA, 1 mM ATP, 2 mM MgSO4, pH 8.8, 37 °C, 30 min
compound,measurement,value
Nc1ncnc2c1ncn2[C@@H]1O[C@H](COP(=O)(O)OP(=O)(O)OP(=O)(O)O)[C@@H](O)[C@H]1O [ATP],malachite green phosphate release assay,we found strong HamB ATPase activity in the presence of single-stranded DNA
